{
  "source": "paper PMC8279408",
  "key": {"[1]": {"assay": "Water solubility", "format": "physicochemical", "conditions": "in distilled water", "protocol": "The synthesis of dicyanocobinamide (Cbi) was performed according to previously reported methods.[59] Briefly, to a 10 mL microwave reaction vessel containing a magnetic stir bar were added B12 (cyanocobalamin) (303.8 mg, 0.225 mmol) (see Figures S1–S6), sodium cyanide (NaCN) (36.9 mg, 0.7096 mmol), and 5 mL of EtOH, and the vessel was sealed. The reaction was heated to 120 °C for 10 min. Following completion of the microwave reaction, the remaining solution was transferred and diluted using isopropyl alcohol (iPrOH). The reaction was purified utilizing a normal-phase silica column. The reaction was eluted using 100% methanol (MeOH). The product eluted as a purple product. The isolated product was precipitated utilizing diethyl ether (Et2O) and allowed to dry producing a solid, purple product, 2 (see Figure 2), in 80% yield (187.4 mg, 0.1795 mmol). Solubility was measured to be 400 mg/mL in distilled water."}, "[2]": {"test_system": "shrews", "assay": "Food intake and body weight (energy balance) in shrews", "format": "in vivo, Suncus murinus", "conditions": "5 nmol/kg IP, single dose, n = 10 shrews", "quoted_text": "Food intake was evaluated using our custom-made feedometers, consisting of a standard plexiglass rodent housing cage (29 × 19 × 12.7 cm) with mounted food hoppers resting on a plexiglass cup (to account for spillage). Shrews had ad libitum access to powdered food through a circular (3 cm diameter) hole in the cage. Food was removed 1 h prior to the dark onset. […] Food intake was manually measured at 6, 24, and 48 h post injection. BW was measured at 0, 24, and 48 h."}, "[3]": {"molecular_target": "human glucagon like peptide-1 receptor (human) (UniProt P43220)", "sequence (P43220 24-463)": "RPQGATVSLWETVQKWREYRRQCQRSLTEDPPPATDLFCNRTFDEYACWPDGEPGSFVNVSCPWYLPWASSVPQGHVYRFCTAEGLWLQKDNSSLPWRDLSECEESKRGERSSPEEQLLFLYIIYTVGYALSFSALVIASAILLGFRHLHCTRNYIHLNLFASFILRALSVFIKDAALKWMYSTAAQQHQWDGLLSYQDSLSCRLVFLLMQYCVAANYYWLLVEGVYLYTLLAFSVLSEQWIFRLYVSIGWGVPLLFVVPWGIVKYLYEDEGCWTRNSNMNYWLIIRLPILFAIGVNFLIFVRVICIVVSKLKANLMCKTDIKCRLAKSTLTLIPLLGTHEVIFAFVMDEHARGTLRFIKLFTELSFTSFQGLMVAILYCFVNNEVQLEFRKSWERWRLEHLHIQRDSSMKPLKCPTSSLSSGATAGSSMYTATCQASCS"}, "[4]": {"test_system": "patients", "conditions": "over ∼1 year; cited from earlier work"}, "[5]": {"molecular_target": "rat GLP-1R (rat) (UniProt P32301)", "sequence (P32301 22-463)": "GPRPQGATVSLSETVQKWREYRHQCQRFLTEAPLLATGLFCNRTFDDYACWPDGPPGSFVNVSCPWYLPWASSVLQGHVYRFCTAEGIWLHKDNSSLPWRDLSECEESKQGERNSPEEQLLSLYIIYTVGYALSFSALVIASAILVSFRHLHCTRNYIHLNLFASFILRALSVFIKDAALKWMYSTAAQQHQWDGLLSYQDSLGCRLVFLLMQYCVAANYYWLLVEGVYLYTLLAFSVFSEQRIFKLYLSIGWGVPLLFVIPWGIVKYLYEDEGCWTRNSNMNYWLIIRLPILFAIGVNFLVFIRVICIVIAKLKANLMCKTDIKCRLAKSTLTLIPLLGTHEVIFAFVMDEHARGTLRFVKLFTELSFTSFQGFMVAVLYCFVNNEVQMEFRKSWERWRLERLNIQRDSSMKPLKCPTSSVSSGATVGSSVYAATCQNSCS"}, "[6]": {"molecular_target": "human glucagon like peptide-1 receptor (human) (UniProt P43220)", "assay": "AlphaScreen or HTRF; Taglite fluorescence competitive binding assay (Euroscreen Fast, Cat No. FAST0154B) on CHO-K1 cells at the human GLP-1R; agonist tracer GLP-1red at 4 nM, reference competitor nEx-4; nine concentrations from 1 pM to 1 uM, duplicate independent runs"}},
  "note": "Entries after “also recorded” stand apart in the source; their conditions may differ.",
  "data": [
    {"molecule": "C/C1=C2/[N-]C([C@H](CC(N)=O)[C@@]2(C)CCC(=O)NCC(C)O)[C@]2(C)N=C(/C(C)=C3N=C(/C=C4N=C1[C@@H](CCC(N)=O)C\\4(C)C)[C@@H](CCC(N)=O)[C@]\\3(C)CC(N)=O)[C@@H](CCC(N)=O)[C@]2(C)CC(N)=O.[C-]#N.[C-]#N.[Co]", "note": "(stereo partly drawn) [compound 2, dicyanocobinamide]", "values": [
      {"measurement": "Solubility", "setting": "[1]", "result": 400, "unit": "mg/mL"}
    ]},
    {"molecule": "Cbi-Ex4 [compound 1]", "values": [
      {"measurement": "Food intake", "setting": "[2]; 6, 24, 48 h (72 h in Figure 6D)", "result": "had no effect on food intake; also recorded: had no impact on feeding"},
      {"measurement": "Body weight", "setting": "[2]; 24 h", "result": "No significant changes in body weight; also recorded: not observed"}
    ]},
    {"molecule": "exendin-4 with K12 azido modification (from UniProt P26349 48-87) (peptide)", "values": [
      {"measurement": "EC50 of agonism: cAMP FRET reporter H188 in HEK293 cells stably expressing the human GLP-1R", "setting": "[3]", "result": 0.0125, "unit": "nM"}
    ]},
    {"molecule": "exendin-4 with an azido-lysine added as residue 40 (from UniProt P26349 48-87) (peptide)", "values": [
      {"measurement": "EC50 of agonism: cAMP FRET reporter H188 in HEK293 cells stably expressing the human GLP-1R", "setting": "[3]", "result": 0.0104, "unit": "nM"}
    ]},
    {"molecule": "liraglutide (HAEGTFTSDVSSYLEGQAAKEFIAWLVRGRG; chains of the INN, looked up) [GLP-1R agonist]", "values": [
      {"measurement": "Body weight reduction", "setting": "[4]", "result": "5–6%"}
    ]},
    {"molecule": "native Exendin-4 (from UniProt P26349 48-87) (peptide)", "values": [
      {"measurement": "EC50 of functional agonism at the rat GLP-1R", "setting": "[5]", "result": 0.048, "unit": "nM"},
      {"measurement": "IC50", "setting": "[6]", "result": 4.97, "unit": "nM"}
    ]},
    {"molecule": "semaglutide", "values": [
      {"measurement": "Body weight reduction", "setting": "[4]", "result": "10–12%"}
    ]}
  ]
}
